Test results taken from US12297192B2, “Crystal form of pyrimidine sulfonamide compound and preparation method therefor” (WUXI BIOCITY BIOPHARMACEUTICS CO., LTD., priority 2019, dated 2025).
pIC50: −log10 of the molar value.

Experiments:
[1] = test system: pulmonary hypertension in SD rats induced by monocrotaline (MCT); assay: In vivo pharmacodynamic evaluation, monocrotaline (MCT)-induced pulmonary hypertension model; conditions: for 21-day weight change rate / PCNA positivity rate / Percentage of middle pulmonary artery intima-media thickness / Right ventricular ejection fraction / Right ventricular hypertrophy index / Right ventricular systolic pressure / Right ventricular wall thickness: 21 days, Mean ± SEM, n = 12
From the text: The animal model of pulmonary hypertension in SD rats induced by monocrotaline (MCT) was used in this study to examine the pharmacological effects of the test compound on a rat model of pulmonary hypertension.
• Species: Rat • Strain: Sprague-Dawley • Age at arrival at animal house: 5 weeks • Gender: Male • Animal weight at the start of the experiment: 200-260 g • Number: 88 (81 for pharmacodynamic (PD) and pharmacokinetic (PK) tests and 7 for PK-blank matrix) • Supplier: Shanghai SLAC Experimental Animals Co. • Certificate of the animals: 20170005008695 Other Reagent Information
Solutions of 3 mg/mL Macitentan, 0.1 mg/mL, 0.3 mg/mL and 1 mg/mL the compound of formula (I): an appropriate amount of the compound was weighed and added to a flask with an appropriate volume. PEG 400 of 20% of the total volume was added. Heating and stirring were conducted at 40° C. Tween 80 of 0.5% of the total volume was added. Heating and stirring were conducted at 40° C. Deionized water of 70-75% of the volume was added. Heating and stirring were conducted at 40° C. The pH was adjusted with 5 N NaOH until became clear. Then the pH was reversely adjusted to less than 9 with 6 N HCl and 1 N HCl. The remaining volume was made up with deionized water to achieve the total volume. The final pH was determined (9±0.1).
After the animals had been acclimatized for about 1 week, the animals were randomized into 9 groups according to body weight and the condition of the animal, as shown in Table 15.
Monitoring Indicators Monitoring Indicators in PD Tests • 1) Daily monitoring of the general condition of the animals and their body weights; • 2) Right ventricular function tests: right ventricular ejection fraction (RVEF), right ventricular wall thickness (RVWT); • 3) Hemodynamic tests: right ventricular systolic pressure (RVSP); • 4) Determination of the right ventricular hypertrophy index (RVHI): RV/(LV+SEP); • 5) […] staining to observe PAWT/IHC staining to observe PCNA as the endpoint detection. Monitoring Indicators in PK Tests • 1) Daily monitoring of the general condition of the animals and their body weights; • 2) Plasma: determination of the pharmacokinetic parameters of the compounds in plasma. Test Method B-Mode Ultrasonic Detection of RVEF, RVWT
Rats were anesthetized with 30 mg/mL pentobarbital sodium (2 mL/kg, ip) and RVEF, RVWT were measured using a small animal ultrasound instrument (VEVO-1100).
Rats were anesthetized with 30 mg/mL sodium pentobarbital (2 mL/kg, ip), fixed onto a surgical plate in supine position, and shaved on the neck. A skin incision was made on the neck. The subcutaneous tissue and muscle layer were bluntly dissected. And the left carotid artery and right jugular vein were stripped. A rat-specific right heart catheter (a PE tube with an external diameter of about 1.5 mm and a small arc-shaped curve at the distal end) connected to a pressure transducer and filled with 0.3% heparin sodium solution was inserted into the right external jugular vein. The arc of the pulmonary artery catheter was kept downwards during the operation and the pulmonary artery catheter was threaded towards the right atrium. The pressure waveform was used to judge whether it had reached the heart. The catheter was deflected towards the left and pushed forward into the right ventricle.
The heart was removed. The atria and great vessels were removed. Blotted to dryness with filter paper. The right ventricle was stripped and weighed to calculate RVHI=RV/(LV+SEP).
After euthanasia of the rats, the middle lobe of the right lung was removed, perfused using saline and placed in 4% paraformaldehyde for fixation for the purpose of pathological examination.
All data was entered into an Excel document and expressed as mean (Mean)±standard error of mean (SEM). One-way ANOVA with Dunnett's t test was used to analyze and compare the data of each group. Differences between two groups were compared using the unpaired two-tailed t-test method.

[2] = molecular target: T1, bile salt export pump (BSEP) (Homo sapiens, UniProt O95342); assay: Inhibition test on bile salt export pump (BSEP), taurocholic acid uptake in BSEP-Hi5-VT vesicles; type: in vitro ADME
T1 construct: purchased Solvo Biotechnology SB-BSEP-Hi5-VT; host or cells: Hi5 insect cells (read from the product name), membrane vesicles
T1 sequence (O95342 whole entry): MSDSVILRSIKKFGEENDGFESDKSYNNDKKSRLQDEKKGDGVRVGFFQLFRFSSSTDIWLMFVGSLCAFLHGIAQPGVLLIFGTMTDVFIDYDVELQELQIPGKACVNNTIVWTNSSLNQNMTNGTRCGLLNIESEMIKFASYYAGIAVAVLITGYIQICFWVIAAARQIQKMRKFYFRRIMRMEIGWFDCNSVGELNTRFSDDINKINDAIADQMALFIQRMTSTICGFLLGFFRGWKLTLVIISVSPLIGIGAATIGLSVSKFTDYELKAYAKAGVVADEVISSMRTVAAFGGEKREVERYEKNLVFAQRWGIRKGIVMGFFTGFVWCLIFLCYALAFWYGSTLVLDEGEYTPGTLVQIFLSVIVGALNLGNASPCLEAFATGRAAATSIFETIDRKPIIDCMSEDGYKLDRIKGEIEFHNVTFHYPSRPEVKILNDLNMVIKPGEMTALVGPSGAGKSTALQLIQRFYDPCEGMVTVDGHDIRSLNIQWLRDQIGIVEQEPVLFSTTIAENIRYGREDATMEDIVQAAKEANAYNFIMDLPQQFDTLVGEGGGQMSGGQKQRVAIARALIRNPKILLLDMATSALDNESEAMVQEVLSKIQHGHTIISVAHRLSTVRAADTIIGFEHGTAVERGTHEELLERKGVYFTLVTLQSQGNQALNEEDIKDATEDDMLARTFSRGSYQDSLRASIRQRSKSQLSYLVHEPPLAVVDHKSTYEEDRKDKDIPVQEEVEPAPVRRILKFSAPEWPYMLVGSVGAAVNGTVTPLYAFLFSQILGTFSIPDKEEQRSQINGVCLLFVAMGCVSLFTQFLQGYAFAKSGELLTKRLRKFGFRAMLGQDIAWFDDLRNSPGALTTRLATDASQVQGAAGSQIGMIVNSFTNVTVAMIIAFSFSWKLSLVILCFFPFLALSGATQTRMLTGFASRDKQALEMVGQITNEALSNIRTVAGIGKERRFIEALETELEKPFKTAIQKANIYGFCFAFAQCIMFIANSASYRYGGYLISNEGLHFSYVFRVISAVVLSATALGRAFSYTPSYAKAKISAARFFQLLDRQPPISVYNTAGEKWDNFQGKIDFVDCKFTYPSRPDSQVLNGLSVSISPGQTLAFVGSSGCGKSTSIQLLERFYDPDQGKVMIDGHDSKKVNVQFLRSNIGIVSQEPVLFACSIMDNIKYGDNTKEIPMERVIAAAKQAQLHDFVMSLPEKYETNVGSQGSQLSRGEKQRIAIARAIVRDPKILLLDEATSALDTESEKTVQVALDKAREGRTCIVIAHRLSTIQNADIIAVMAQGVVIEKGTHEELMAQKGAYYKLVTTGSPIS
Description: Compounds were diluted to 100 mM with DMSO; then subjected to a serial dilution of 3-fold for eleven dilutions. The minimum concentration was 0.169 μM. • 2. […] The minimum concentration was 19.5 μM. Experimental Protocol: • 1. ECHO was used to transfer 0.3 μl of DMSO solution of the compounds or diluted DMSO to the corresponding wells of the compounds plate, respectively. • 2. 14.7 μl of ATP Buffer was added into the corresponding wells of the compounds and the zero percent effect (ZPE), respectively. • 3. 14.7 μl of AMP Buffer was added into the corresponding wells of the hundred percent effect (HPE). • 4. The plate was shaken for 10 minutes at 25° C. • 5. 15 μl of BSEP-Hi5-VT Vesicle solution was added to each well separately and the plate was shaken for a further 40 minutes at 25° C. • 6. 5 μl of 0.5 M Ethylenediaminetetraacetic acid (EDTA) solution was immediately added to each well, followed by 65 μl of Buffer B. All reactions were complete. • 7. After the reactions were complete, 95 μl of liquid was transferred from the compounds plate to the filter plate using apparatus. • 8. The liquid receiving plate was placed under the filter plate. Then the liquid was removed using a centrifuge. The liquid on the receiving plate was discarded. • 9. 90 μl of Buffer B was added to the filter plate. The liquid receiving plate was placed under the filter plate. Then the liquid was removed using a centrifuge. The liquid on the receiving plate was discarded. The filter plate was washed three times in total. • 10. The filter plate was left to dry overnight. • 11. On the next day, 80 μl of methanol/water (80/20, v/v) solution was added to the filter plate. • 12. The plate was vibrated for 15 minutes after applying the film to the filter plate. • 13. […] Taurocholic acid in the receiving plate was determined using LC/MS/MS.
Several concentrations were tested in each experiment and the data was analyzed using Prism to produce a concentration-response curve to calculate the IC50 values of the compounds.

COCCNS(=O)(=O)Nc1ncnc(OCCOc2ncc(Br)cn2)c1-c1ccc2c(c1)OCO2 [Compound of formula (I)]
21-day weight change rate ([1]; 1 mg/kg PO/QD): 43.33 ± 1.56%
PCNA positivity rate ([1]; 1 mg/kg PO/QD): 3.6 ± 0.69 %
Percentage of middle pulmonary artery intima-media thickness ([1]; 1 mg/kg PO/QD): 40.44 ± 1.13 %
Right ventricular ejection fraction ([1]; 1 mg/kg PO/QD): 58.48 ± 2.11 %
Right ventricular hypertrophy index ([1]; 1 mg/kg PO/QD): 0.40 ± 0.01
Right ventricular systolic pressure ([1]; 1 mg/kg PO/QD): 40.72 ± 3.38 mmHg
Right ventricular wall thickness ([1]; 1 mg/kg PO/QD): 1.16 ± 0.05 mm
21-day weight change rate ([1]; 3 mg/kg PO/QD): 41.23 ± 3.47%
PCNA positivity rate ([1]; 3 mg/kg PO/QD): 3.56 ± 0.66 %
Percentage of middle pulmonary artery intima-media thickness ([1]; 3 mg/kg PO/QD): 35.44 ± 1.55 %
Right ventricular ejection fraction ([1]; 3 mg/kg PO/QD): 58 ± 1.80 %
Right ventricular hypertrophy index ([1]; 3 mg/kg PO/QD): 0.38 ± 0.03
Right ventricular systolic pressure ([1]; 3 mg/kg PO/QD): 36.70 ± 3.81 mmHg
Right ventricular wall thickness ([1]; 3 mg/kg PO/QD): 1.11 ± 0.05 mm
21-day weight change rate ([1]; 10 mg/kg PO/QD): 42.04 ± 3.07%
PCNA positivity rate ([1]; 10 mg/kg PO/QD): 2.85 ± 0.65 %
Percentage of middle pulmonary artery intima-media thickness ([1]; 10 mg/kg PO/QD): 40.11 ± 1.07 %
Right ventricular ejection fraction ([1]; 10 mg/kg PO/QD): 59.86 ± 2.29 %
Right ventricular hypertrophy index ([1]; 10 mg/kg PO/QD): 0.36 ± 0.02
Right ventricular systolic pressure ([1]; 10 mg/kg PO/QD): 37.82 ± 3.10 mmHg
Right ventricular wall thickness ([1]; 10 mg/kg PO/QD): 1.10 ± 0.05 mm
Indicators of pulmonary hypertension and right ventricular function (in words) ([1]; doses of 1, 3 and 10 mg/kg): significantly improved
Inhibitory effect on bile salt export pump (in words) [2]: extremely weak inhibitory effect

CCCNS(=O)(=O)Nc1ncnc(OCCOc2ncc(Br)cn2)c1-c1ccc(Br)cc1 [Macitentan, reference compound]
21-day weight change rate ([1]; 30 mg/kg gavage once a day): 45.75 ± 2.14%
PCNA positivity rate ([1]; 30 mg/kg gavage once a day): 4.43 ± 0.42%
Percentage of middle pulmonary artery intima-media thickness ([1]; 30 mg/kg gavage once a day): 46.56 ± 1.07 %
Right ventricular ejection fraction ([1]; 30 mg/kg gavage once a day): 58.87 ± 1.71 %
Right ventricular hypertrophy index ([1]; 30 mg/kg gavage once a day): 0.36 ± 0.03
Right ventricular systolic pressure ([1]; 30 mg/kg gavage once a day): 38.71 ± 3.52 mmHg
Right ventricular wall thickness ([1]; 30 mg/kg gavage once a day): 1.13 ± 0.04 mm
Inhibitory effect on bile salt export pump (in words) [2]: strong inhibitory effect
pIC50 ([2]; taurocholic acid substrate, BSEP-Hi5-VT vesicles): 6.33
